“Also recorded” adds a separate entry of the source.

The test system of one assay is gp145^trkB. As to the kind of experiment: gp145^trkB tyrosine phosphorylation in trkB-expressing NIH 3T3 cells (pJM8 lines), immunoprecipitation and α-Ptyr Western. Conditions: pJM8 trkB-expressing NIH 3T3 cells, 100 ng/ml factor, 5 min. Format: cell-based, rat. The procedure: A 4.8 kb cDNA encompassing the coding domain of rat trkB (Middlemas et al., (1991)) was cloned into the pMEX plasmid (pJM8) downstream of the MSV promoter. NIH 3T3 cells were cotransfected with the pJM8 plasmid and a plasmid containing the neomycin phosphotransferase gene (L. F. Parada et al., Nature 312:649-651 (1984)), and G418-resistant colonies were selected. PC12 cells (Greene and Tischler, 1976) were grown in DMEM with 10% horse serum and 5% fetal calf serum. NIH 3T3 cells and the derivative cells lines were maintained in DMEM medium containing 10% calf serum. All cells were maintained in a humidified incubator at 37° C. in 5% CO2.
Approximately 10^7 cells were treated at 37° C. for 5 min with 100 ng/ml growth factors or at the concentrations and lengths of time noted in the text. NP-40 plate lysis and gp145^trkB immunoprecipitation with anti-serum 443 were performed as previously described (Kaplan et al., (1990), (1991)). The phosphotyrosine content was analyzed by Western transfer using monoclonal antibody 4G10 as previously described (Morrison et al., (1989)).
The product of the trk proto-oncogene (gp140^proto-trk) is tyrosine phosphorylated in response to NGF in PC12 cells, NGF-responsive neuroblastoma cells, heterologous fibroblasts and Xenopus oocytes (Kaplan et al., (1991); A. R. Nebreda et al., Science 252:558-560 (1991); Klein et al., (1991)). Next it was examined whether NGF elicited tyrosine phosphorylation of gp145^trkB in trkB-expressing NIH 3T3 cells. Cell line pJM8-3 was treated with high concentrations of NGF (100 ng/ml) for 5 minutes. The cells were lysed, immunoprecipitated with anti-trkB antiserum 443, transferred to nitrocellulose filters and probed with anti-phosphotyrosine (α-Ptyr) antibodies. As a negative control, untransfected NIH-3T3 cells were treated in parallel, while PC12 cells were used as a positive control for NGF responsiveness (Kaplan et al., (1991)).
BDNF and NT-3 are neurotrophic factors that display many functional and structural features that are reminiscent of NGF. The genes encoding BDNF and NT-3 have recently been cloned and used to express high levels of the biologically active factors in pure form (A. Rosenthal et al., Neuron 4:773 (1990)). It was tested whether these NGF-related neurotrophic factors would stimulate phosphorylation of the trkB glycoprotein by exposing the pJM-8 cell lines to 100 ng/ml of NGF, BDNF, or NT-3 (~4 nM) for 5 minutes. The cells were then lysed and the lysates incubated with a trkB anti-peptide antiserum (443) with or without excess peptide. After transfer to nitrocellulose filters, the trkB proteins were probed with an anti-phosphotyrosine (α-ptyr) monoclonal antibody (FIG. 10) (Kaplan et al. (1991)). […] Thus, both neurotrophic factors NT-3 and BDNF can elicit tyrosine phosphorylation of gp145^trkB in a manner similar to that observed for NGF stimulation of the trk receptor. Similar results have been obtained with NT-3 and BDNF in Rat2 cells expressing trkB.
Having detected gp145^trkB phosphorylation in response to BDNF and NT-3, it was next determined whether unrelated polypeptide growth factors were capable of eliciting a similar response. Platelet-derived growth factor (PDGF; 100 ng/ml), epidermal growth factor (EGF; 100 ng/ml), insulin (100 ng/ml), and basic fibroblast growth factor (bFGF; 100 ng/ml), were added independently to exponentially growing cultures of pJM8-3 cells.
The previous studies were done in the presence of high concentrations of neurotrophic factors. Dose response experiments were next performed to determine the range of concentrations at which phosphorylation of the trkB receptor was stimulated by NT-3 or BDNF. Cells were incubated with quantities of NT-3 or BDNF ranging from 0.1 ng/ml to 250 ng/ml and treated as described in FIG. 12. […]

In another assay the test system is trk transcripts. The experiment in a line: Northern transfer analysis of trk transcripts in PC12 cells with or without NGF. Format: cell-based, rat. Particulars: 50 ng/ml NGF, 48 hr. The procedure:
RNA preparation and Northern transfer analysis was performed as described (Martin-Zanca et al., (1990a)). Cells were treated with 50 ng/ml NGF(+) (Boehringer Mannheim Biochemicals) and were harvested 48 hr later after differentiation had occurred. 20 μg of total RNA was loaded per lane, and the filter was hybridized with a trk (Martin-Zanca et al., (1990)) or trkB (Klein et al., (1990a)) specific probe.
The trk gene is a member of a gene family of TK receptors that includes the related gene trkb. To determine if trk is transcribed in PC12 cells, the expression of trk transcripts was assayed by Northern transfer analysis with a full-length trk cDNA probe (R. Klein et al., (1990a)). PC12 cells contained trk transcripts (FIG. 7). The level of trk transcripts was not affected by the addition of NGF. To determine whether additional trk-related genes were transcribed in PC12 cells, mRNA was hybridized at low stringency with the highly conserved trk TK domain. trk transcripts have been found in LA-N-5 cells, Sy5y cells and DRG from 13.5 day or 14.5 day embryonic mice.

Consider “NGF: neurotrophic polypeptide factor, nerve growth factor; ligand of trk proto-oncogene receptor”, for which the “tyrosine phosphorylation of gp145^trkB” value in the assay on gp145^trkB is recorded as “no increase in phosphorylation; also recorded: no detectable effect”. Moreover, the “level of trk transcripts” value in the assay on trk transcripts is recorded as “not affected”.

These data come from patent publication US6071709A, “Nerve growth factor/receptor complex” (The United States of America as represented by the …, priority 1992, dated 2000).
